The test system of assay [1] is TNF-alpha. Kind of assay: TNF-alpha secretion by human monocytes (U937 line) stimulated by phorbol ester (PMA). It counts as cell-based. To be noted: U937, PMA 10 nM, 48 hours; for % inhibition of TNF-alpha secretion induced by PMA: mean of 3 measurements. The protocol: This test is performed on human monocytes (U937 line) stimulated by a phorbol ester (PMA) according to the method described by Schindler et al (Correlations and interactions in the production of interleukin-6 (IL-6), IL-1, and Tumor Necrosis Factor (TNF) in human blood mononuclear cells: IL-6 suppresses IL-1 and TNF. Blood 75: 40-47 (1990)).
The phorbol ester (PMA) naturally stimulates the synthesis and/or the secretion of TNF-alpha by human monocytes in culture.
The activity of the molecules is evaluated according to their ability to reduce or even eliminate this TNF-alpha secretion.
The cells (monocytes) are incubated in the presence of PMA at the concentration of 10 nM for 48 hours at 37° C. The quantities of TNF-alpha secreted are quantified by immuno-enzymatic assay ([…]) with the aid of commercially available kits.
Each molecule is tested at 3 different concentrations (10^-5, 10^-4 and 10^-3 M) and during each experiment, a reference molecule (dexamethasone) is studied at 7 concentrations as internal standard.
The results are expressed as percentage inhibition relative to the positive control (without test molecule) after subtracting the background noise. A recapitulative Table 3 groups together the mean inhibitory effects obtained with the compounds. (The results expressed in % inhibition; they are the mean of 3 measurements).

Assay [2] concerns substance P. Kind of assay: release of substance P caused by antidromic stimulation of the sciatic nerve, visualized with Evans blue. It counts as in vivo. The conditions noted are these: for % inhibition relative to the control / μg/ml of Evans blue: 1 μmol; for μg/ml of Evans blue: control vehicle 8.19 ± 0.83. An excerpt:
The test consisted in determining the activity of the various compounds on the release of substance P, caused by antidromic stimulation of the sciatic nerve. This release is visualized by staining with a dye (Evans blue). The greater the quantity of substance P released, the more intense the colour. In other words, the greater the inhibitory effect produced on this release by the substance P antagonist, the less intense the colour.

For `[Cl-].[Cl-].[Mg+2]` [MgCl2, magnesium chloride], the “% inhibition of TNF-alpha secretion induced by PMA” value (shortened to “% inhibition … by PMA”) in assay [1] (10^-3 M) is 70%; in assay [1] (10^-4 M) it was 12%.

Broadly, the IC50 is the concentration needed to halve the response being measured. As for `C[C@@H]1C[C@H]2[C@@H]3CCC4=CC(=O)C=C[C@]4(C)[C@@]3(F)[C@@H](O)C[C@]2(C)[C@@]1(O)C(=O)CO` [dexamethasone, reference compound], the IC50 in assay [1] (Homo sapiens, U-937, read-out: IC50 (50% reduction in the secretion, caused by PMA), reference molecule, 7 concentrations) stood at 4 nM.

Take `O=[N+]([O-])[O-].O=[N+]([O-])[O-].[Ca+2]` [Ca(NO3)2, calcium nitrate]: the “inhibitory activity on the release of substance P” value is “does not have any activity at all” in assay [2] (Table 1, salts at 1 μmol) and “has no activity at all” in assay [2] (Table 2, strontium salts 1 μmol, calcium salt 10 μmol).

As for `[Cl-].[Cl-].[Sr+2]` [SrCl2 7H2 O, strontium chloride], the “% inhibition … by PMA” value in assay [1] (10^-3 M) is given as 54%; in assay [1] (10^-5 M) it was 14%.

For `[Cl-].[Cl-].[Sr+2]` [SrCl2, strontium chloride], in assay [2] (Table 1), the “% inhibition relative to the control” value was 37% and the “μg/ml of Evans blue” value was found to be 5.13 ± 0.9 µg/mL. In assay [2] (Table 2), the “% inhibition relative to the control” value was found to be 57%.

Consider `[Ca+2].[Cl-].[Cl-]` [CaCl2,7H2 O, calcium chloride], for which the “% inhibition … by PMA” value in assay [1] (10^-3 M) came to 67%; in assay [1] (10^-4 M) it was 22%; in assay [1] (10^-5 M), 19%.

In the case of `O=[N+]([O-])[O-].O=[N+]([O-])[O-].[Sr+2]` [Sr(NO3)2, strontium nitrate], the “% inhibition relative to the control” value is 41% in assay [2] (Table 1) and 71% in assay [2] (Table 2). Also, the “μg/ml of Evans blue” value in assay [2] (Table 1) was determined as 4.84 ± 0.6 µg/mL. The figures for the “% inhibition … by PMA” value in assay [1] (10^-3 M) and in assay [1] (10^-4 M) were 75% and 28%, respectively.

For the origin of these results see patent US5851556A, “Use of a salt of an alkaline-earth metal as TNF-A or substance P inhibitor in a topical composition and composition obtained” (Societe L'Oreal S.A., priority 1995, dated 1998).
